Results as given in patent US9108929B2, “Quinazoline based EGFR inhibitors” (Curis, Inc., priority 2006, dated 2015).

Experiments:
[1] = target: T1, human EGFR (His672-Ala1210) (Homo sapiens, UniProt P00533); experiment: EGFR kinase inhibition assay (HTScan EGF Receptor Kinase Assay Kit); type: biochemical
T1 construct: a construct expressing human EGFR (His672-Ala1210); GST (N); purchased Cell Signaling Technologies; host or cells: baculovirus expression system
Protocol: The ability of compounds to inhibit receptor kinase (EGFR) activity can be assayed using HTSCAN™ EGF Receptor Kinase Assay Kits (Cell Signaling Technologies, Danvers, Mass.). […] The protein is purified by one-step affinity chromatography using glutathione-agarose.
Immediately transfer enzyme from −80° C. to ice. Allow enzyme to thaw on ice. […] Return immediately to ice. […] Incubate reaction plate at room temperature for 30 minutes. […] Add 100 μl/well primary antibody. Incubate at room temperature for 60 minutes. […] Add 100 μl/well diluted antibody. Incubate at room temperature for 30 minutes. Wash five times with 200 μl/well PBS/T. Add 100 μl/well DELFIA® Enhancement Solution. Incubate at room temperature for 5 minutes.

[2] = system: HDAC (HeLa nuclear extract); experiment: HDAC fluorimetric assay (HDAC enzymatic activity); type: biochemical
Protocol: HDAC inhibitors are screened using an HDAC fluorimetric assay kit (AK-500, Biomol, Plymouth Meeting, Pa.).
Each assay is setup as follows: Defrost all kit components and keep on ice until use. Dilute HeLa nuclear extract 1:29 in Assay Buffer (50 mM Tris/Cl, pH 8.0, 137 mM NaCl, 2.7 mM KCl, 1 mM MgCl2). Prepare dilutions of Trichostatin A (TSA, positive control) and test compounds in assay buffer (5× of final concentration). Dilute Fluor de Lys™ Substrate in assay buffer to 100 uM (50 fold=2× final). Dilute Fluor de Lys™ developer concentrate 20-fold (e.g. 50 μl plus 950 μl Assay Buffer) in cold assay buffer. Second, dilute the 0.2 mM Trichostatin A 100-fold in the 1× Developer (e.g. 10 μl in 1 ml; final Trichostatin A concentration in the 1× Developer=2 μM; final concentration after addition to HDAC/Substrate reaction=1 μM). Add Assay buffer, diluted trichostatin A or test inhibitor to appropriate wells of the microtiter plate. Add diluted HeLa extract or other HDAC sample to all wells except for negative controls. Allow diluted Fluor de Lys™ Substrate and the samples in the microtiter plate to equilibrate to assay temperature (e.g. 25 or 37° C. Initiate HDAC reactions by adding diluted substrate (25 μl) to each well and mixing thoroughly.
Allow HDAC reactions to proceed for 1 hour and then stopped them by addition of Fluor de Lys™ Developer (50 μl). Incubate plate at room temperature (25° C.) for 10-15 min. Read samples in a microtiter-plate reading fluorimeter capable of excitation at a wavelength in the range 350-380 nm and detection of emitted light in the range 440-460 nm.

HER2/ErbB2 = HER2/ErbB2 (Homo sapiens, UniProt P04626); experiment: HER2/ErbB2 inhibition; type: biochemical
Chain of HER2/ErbB2 (P04626 23-1255): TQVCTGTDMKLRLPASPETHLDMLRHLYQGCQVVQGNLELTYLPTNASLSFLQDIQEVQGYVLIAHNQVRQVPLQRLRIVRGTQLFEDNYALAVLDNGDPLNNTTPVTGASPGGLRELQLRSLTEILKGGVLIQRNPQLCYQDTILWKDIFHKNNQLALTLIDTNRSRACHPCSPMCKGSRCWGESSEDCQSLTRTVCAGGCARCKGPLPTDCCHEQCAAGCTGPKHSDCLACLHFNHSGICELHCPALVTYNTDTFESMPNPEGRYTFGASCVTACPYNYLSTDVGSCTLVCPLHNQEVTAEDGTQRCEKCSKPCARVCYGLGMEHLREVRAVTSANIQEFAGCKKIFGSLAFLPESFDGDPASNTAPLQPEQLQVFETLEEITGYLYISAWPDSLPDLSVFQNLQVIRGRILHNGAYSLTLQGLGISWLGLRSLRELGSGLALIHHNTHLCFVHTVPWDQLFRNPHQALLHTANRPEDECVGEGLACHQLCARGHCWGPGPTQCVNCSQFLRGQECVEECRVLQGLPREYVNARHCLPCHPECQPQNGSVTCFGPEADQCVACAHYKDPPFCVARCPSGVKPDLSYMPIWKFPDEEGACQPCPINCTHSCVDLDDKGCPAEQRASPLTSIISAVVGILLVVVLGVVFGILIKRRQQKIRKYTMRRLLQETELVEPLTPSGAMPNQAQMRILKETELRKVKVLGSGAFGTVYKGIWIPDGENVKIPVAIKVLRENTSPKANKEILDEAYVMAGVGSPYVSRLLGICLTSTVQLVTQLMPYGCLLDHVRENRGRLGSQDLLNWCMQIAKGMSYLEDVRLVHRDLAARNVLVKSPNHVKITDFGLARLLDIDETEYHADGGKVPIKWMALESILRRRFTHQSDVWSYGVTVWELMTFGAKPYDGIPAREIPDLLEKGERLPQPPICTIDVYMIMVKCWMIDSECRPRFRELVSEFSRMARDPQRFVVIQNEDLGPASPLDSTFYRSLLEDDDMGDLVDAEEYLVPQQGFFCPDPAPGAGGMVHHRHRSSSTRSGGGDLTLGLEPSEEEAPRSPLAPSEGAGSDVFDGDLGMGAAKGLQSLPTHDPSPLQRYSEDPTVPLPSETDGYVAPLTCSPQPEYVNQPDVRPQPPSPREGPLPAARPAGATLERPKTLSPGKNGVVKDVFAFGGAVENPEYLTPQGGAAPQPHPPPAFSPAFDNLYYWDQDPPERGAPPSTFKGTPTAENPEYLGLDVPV

T1 sequence (P00533 672-1210): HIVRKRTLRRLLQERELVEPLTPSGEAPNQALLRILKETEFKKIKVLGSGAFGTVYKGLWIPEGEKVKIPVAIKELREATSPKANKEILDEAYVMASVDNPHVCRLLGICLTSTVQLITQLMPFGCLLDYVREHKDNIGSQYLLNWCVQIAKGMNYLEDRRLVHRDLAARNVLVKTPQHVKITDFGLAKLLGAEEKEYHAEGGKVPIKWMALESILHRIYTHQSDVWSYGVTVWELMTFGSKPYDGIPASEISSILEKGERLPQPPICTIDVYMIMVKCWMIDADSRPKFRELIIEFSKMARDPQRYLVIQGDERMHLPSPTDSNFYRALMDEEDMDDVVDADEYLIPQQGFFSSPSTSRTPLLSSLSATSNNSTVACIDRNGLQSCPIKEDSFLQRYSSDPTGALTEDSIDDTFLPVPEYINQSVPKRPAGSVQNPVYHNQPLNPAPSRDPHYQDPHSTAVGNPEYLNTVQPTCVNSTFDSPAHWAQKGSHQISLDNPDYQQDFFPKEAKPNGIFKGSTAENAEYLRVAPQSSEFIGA

Row | Compound | IC50 [1] [nM] | IC50 [2] [nM] | IC50 (HER2/ErbB2) [nM] | melting point [°C]
1 | C#Cc1cccc(Nc2ncnc3cc(OC)c(OCCCCC(=O)O)cc23)c1 | < 100 | – | – | –
2 | C#Cc1cccc(Nc2ncnc3cc(OC)c(OCCCCCCC(=O)O)cc23)c1 | < 100 | > 10000 | 100 to 1000 | –
3 | C#Cc1cc(Nc2ncnc3cc(OC)c(OCCCCCCC(=O)O)cc23)ccc1O | < 100 | > 10000 | – | –
4 | C#Cc1cc(Nc2ncnc3cc(OC)c(OCCCCC(=O)O)cc23)ccc1O | – | > 10000 | – | –
5 | CCOC(=O)COc1ccc2ncnc(Nc3ccc(F)c(Cl)c3)c2c1 [Compound 0210-13, Ethyl 2-(4-(3-chloro-4-fluorophenylamino)quinazolin-6-yloxy)acetate] | – | – | – | 161 to 163
